Data on 15 molecules can be found in US20230312556A1, “ARYLAMIDE COMPOUND, PHARMACEUTICAL COMPOSITION COMPRISING SAME, AND PREPARATION METHOD THEREFOR AND USE THEREOF” (SICHUAN KELUN-BIOTECH BIOPHARMACEUTICAL CO., LTD., priority 2020, published 2023).

In data set [1] the test system is human melanoma cell A375 (BRAF-V600E mutation). Description: Cancer cell proliferation inhibition assay, A375. The format is cell-based. As to conditions: A-375, 72 h incubation, Cell Titer Glo. The source says: (§1) The inhibitory effects of the compounds of the present invention on cancer cell proliferation were further evaluated by testing the effects of the compounds of the present invention on the growth of cancer cells.
(§2) In this example, human melanoma cell A375 (BRAF-V600E mutation, purchased from the Cell Bank of the Chinese Academy of Sciences) and human hepatocellular carcinoma cell HepG2 (NRAS-Q61K mutation, purchased from ATCC, USA) were employed.
(§3) In this example, the test compounds at various concentrations (100000 nM, 30000 nM, 10000 nM, 3000 nM, 1000 nM, 300 nM, 100 nM, 30 nM, 10 nM) were added to the above cells, and the incubation was performed for 72 h. The inhibitory activity of the compounds was tested by measuring ATP in living cells using the Cell Titer Glo Kit (Promega).
(§4) The IC50 values of the compounds of the present invention for each tested cell were determined, and the test results are as follows: […]
On the technique in general: Cellular ATP, detected with luciferase, serves as a proxy for viable cell number.

The next data set deals with wild-type BRAF enzyme (Homo sapiens (Human), UniProt P15056). Kind of data set: RAF inhibition assay (TB-PMAP2K1 kit), wild-type BRAF. The format is biochemical. As to conditions: FLUORESCEIN-MAP2K1 substrate, 60 min reaction. As to the method: Assay protocol: the inhibitory effects of the compounds of the present invention on the wild-type BRAF enzyme, mutant CRAF enzyme (RAF1 Y340D and Y341D) and mutant BRAF enzyme (BRAF-V600E) activity were determined according to the instructions of the TB-PMAP2K1 (PSER217/221) kit (ThermoFisher). Different RAF enzymes and substrates (FLUORESCEIN-MAP2K1) were pre-incubated with test compounds at various concentrations at room temperature for 15 min, and then the adenosine triphosphate (ATP) was added to initiate the reaction. After incubation at room temperature for 60 min, EDTA and Tb-labeled anti-pMAP2K1 [pS217/221] antibody solutions were added, and incubation was performed at room temperature for 60 min before the detection of the fluorescence values of the compounds in each group. With the vehicle group (DMSO) as the negative control and the buffer group (without RAF enzyme) as the blank control, the relative inhibitory activity percentage (i.e., the inhibition rate) of a compound at different concentrations was calculated according to the following formula:
Relative inhibitory activity percentage=1−(Compound group at various concentrations−blank control)/(negative control−blank control)*100%
The relative inhibitory activity percentages of the compounds at different concentrations were plotted against the compound concentrations, the curve was fitted according to a four-parameter model, and the IC50 value was calculated according to the following formula:
y=min+(max−min)/(1+(x/IC50)^(−Hillslope))
wherein y is the relative inhibitory activity percentage, max and min are respectively the maximum and minimum values of the fitted curve, x is the logarithm concentration of the compound, and Hillslope is the slope of the curve.

The subject of data set [2] is human hepatocellular carcinoma cell HepG2 (NRAS-Q61K mutation). Kind of data set: Cancer cell proliferation inhibition assay, HepG2. The class given is cell-based. As to conditions: 72 h incubation, Cell Titer Glo.
Excerpt: as §1, §2, §3, §4

Data set [3] is described as follows: Pharmacokinetic test in Beagle dogs. The class given is in vivo. To be noted: male Beagle dogs, PO, 2.5 mg/kg, plasma. As to the method: The compounds were administered to male Beagle dogs by gavage (PO) to investigate the pharmacokinetic profile.
Compound 1 of the present invention and HM95573 were administered via PO; the administration dosage was 2.5 mg/kg, and the solvent was a 20% aqueous solution of hydroxypropyl-β-cyclodextrin. Blood samples were collected before the administration (0 h) and at 0.25, 0.5, 1, 2, 4, 6, 8, 24, 48, and 72 hours after the administration, and 1 mL blood was collected from the limbs vein and placed in a K2-EDTA anticoagulation tube. After centrifugation at 4000 rpm for 5 min (4° C.), the plasma was separated and stored at −80° C. for testing. The plasma samples were processed by precipitating proteins, and then subjected to LC-MS/MS analysis. The pharmacokinetic parameters were calculated using the WinNonlin 6.3 software and employing a non-compartmental model, and the results are shown in Table 7.

The nature of data set [4]: Pharmacokinetic test in Balb/c mice. The format is in vivo. To be noted: female Balb/c mice, PO, 10 mg/kg, DBS samples. As for the experimental part: The compounds were administered to female Balb/c mice by gavage (PO) to investigate the pharmacokinetic profile.
Compound 1 of the present invention and HM95573 (prepared according to Example 116 in CN104039798B) were administered via PO; the administration dosage was 10 mg/kg, and the administration vehicle was a 20% aqueous solution of hydroxypropyl-β-cyclodextrin. Blood samples were collected before the administration (0 h) and at 0.25, 0.5, 1, 2, 4, 6, 8, 24, 48, and 72 h after the administration; 50-70 μL of blood was drawn from the orbit and spotted on Whatman 903 card, which was air-dried at room temperature for testing. After the testing, the samples were placed in a sealed dry box and stored at −80° C. (DBS samples). The DBS samples were punched with a 6 mm punch, then 80 μL of 50% acetonitrile-water was added and shaken (800 rpm, 10 min), followed by sonication for 10 min, then 350 μL of acetonitrile containing internal standard was added and shaken (700 rpm, 10 min). After sonication for 10 min, the samples were centrifuged at 4000 rpm and 4° C. for 10 min, and the supernatant was collected for LC-MS/MS analysis. The pharmacokinetic parameters were calculated using the WinNonlin 6.3 software and employing a non-compartmental model, and the results are shown in Table 6.

wild-type BRAF enzyme, sequence (P15056 whole entry): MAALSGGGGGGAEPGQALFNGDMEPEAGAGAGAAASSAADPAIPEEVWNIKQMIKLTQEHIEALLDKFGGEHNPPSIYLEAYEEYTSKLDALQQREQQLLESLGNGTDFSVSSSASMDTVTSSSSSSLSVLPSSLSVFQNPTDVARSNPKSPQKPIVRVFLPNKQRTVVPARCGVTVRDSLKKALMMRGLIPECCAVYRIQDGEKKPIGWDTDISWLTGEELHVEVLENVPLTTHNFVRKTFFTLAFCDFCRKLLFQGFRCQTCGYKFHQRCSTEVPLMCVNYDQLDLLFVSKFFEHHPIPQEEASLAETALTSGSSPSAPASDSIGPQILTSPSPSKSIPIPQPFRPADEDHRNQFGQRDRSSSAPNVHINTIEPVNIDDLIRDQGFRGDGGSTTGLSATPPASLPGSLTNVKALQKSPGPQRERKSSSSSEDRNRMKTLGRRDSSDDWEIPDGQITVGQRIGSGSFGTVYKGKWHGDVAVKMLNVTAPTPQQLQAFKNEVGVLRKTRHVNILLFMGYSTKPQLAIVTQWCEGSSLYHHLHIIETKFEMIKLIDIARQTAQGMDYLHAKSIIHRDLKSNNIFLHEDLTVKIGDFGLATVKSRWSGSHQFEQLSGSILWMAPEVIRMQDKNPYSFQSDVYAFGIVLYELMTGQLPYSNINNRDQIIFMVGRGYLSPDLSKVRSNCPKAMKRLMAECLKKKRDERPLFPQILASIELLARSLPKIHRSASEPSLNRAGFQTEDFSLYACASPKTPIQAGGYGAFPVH

Broadly, the IC50 is the concentration that inhibits the measured activity by half. Higher therefore signals weaker potency. Turning to `Cc1ccc2c(Nc3cccc(Cl)c3F)nccc2c1NC(=O)c1cc(F)cc2c(N)ncnc12` [Compound 46, 4-amino-N-(1-((3-chloro-2-fluorophenyl)amino)-6-methylisoquinolin-5-yl)-6-fluoroquinazoline-8-carboxamide], the half-inhibitory concentration (IC50) in data set [1] stood at 89.3 ± 5.2 nM; on wild-type BRAF enzyme, 79.3 ± 19.5 nM; in data set [2], 74.4 ± 7.91 nM.

Turning to `Nc1ncnc2c(C(=O)Nc3c(F)ccc4c(Nc5cccc(Cl)c5F)nccc34)cccc12` [Compound 92, 4-amino-N-(1-((3-chloro-2-fluorophenyl)amino)-6-fluoroisoquinolin-5-yl)quinazoline-8-carboxamide], the half-inhibitory concentration (IC50) in data set [1] amounted to 128 ± 8 nM; against wild-type BRAF enzyme it was 21.8 ± 3.89 nM; in data set [2], 49.8 ± 4.3 nM.

As to `Cc1ccc2c(Nc3ccc(F)cc3F)nccc2c1NC(=O)c1cc(F)cc2c(N)ncnc12` [Compound 85, 4-amino-N-(1-((2,4-difluorophenyl)amino)-6-methylisoquinolin-5-yl)-6-fluoroquinazoline-8-carboxamide], the 50% inhibitory concentration (IC50) in data set [1] worked out at 148 ± 3.8 nM; at wild-type BRAF enzyme it was 12.9 ± 0.9 nM; in data set [2] it was 40.1 ± 6.97 nM.

For the molecule `Cc1ccc2c(Nc3cccc(C(F)(F)F)c3)nccc2c1NC(=O)c1cnc2c(N)ncnn12` [Compound 43, 4-amino-N-(6-methyl-1-((3-(trifluoromethyl)phenyl)amino)isoquinolin-5-yl)imidazo[2,1-f][1,2,4]triazine-7-carboxamide], the half-inhibitory concentration (IC50) is 61.7 ± 3 nM in data set [1], 20.7 ± 5.71 nM against wild-type BRAF enzyme and 32.9 ± 3.3 nM in data set [2].

The Cmax is the highest concentration seen after dosing. By Tmax is commonly meant the time at which the peak concentration occurs. Consider `Cc1ccc2c(Nc3cccc(Cl)c3F)nccc2c1NC(=O)c1csc2c(N)ncnc12` [HM95573, reference compound], for which, in data set [3], the AUClast stood at 13080 ± 6254 ng·h/mL, the Cmax is 989 ± 411 ng/mL, the T1/2 came to 8.43 ± 1.76 h and the time of peak concentration (Tmax) was 1.33 ± 0.58 h. Besides, in data set [4], the AUClast amounted to 110760 ± 9636 ng·h/mL, the Cmax is 4710 ± 806 ng/mL, the T1/2 is recorded as 9.57 ± 0.58 h and the Tmax came out at 1.67 ± 0.58 h.

As for `Cc1ccc2c(Nc3cc(S(C)(=O)=O)ccc3F)nccc2c1NC(=O)c1cccc2c(N)ncnc12` [Compound 89, 4-amino-N-(1-((2-fluoro-5-(methylsulfonyl)phenyl)amino)-6-methylisoquinolin-5-yl)quinazoline-8-carboxamide], the IC50 was 111 ± 5.2 nM in data set [1], 20.4 ± 1.3 nM at wild-type BRAF enzyme and 106 ± 25.2 nM in data set [2].

As to `Cc1ccc2c(Nc3cc(Cl)ccc3F)nccc2c1NC(=O)c1cccc2c(N)ncnc12` [Compound 73, 4-amino-N-(1-((5-chloro-2-fluorophenyl)amino)-6-methylisoquinolin-5-yl)quinazoline-8-carboxamide], the half-inhibitory concentration (IC50) stood at 109 ± 22.8 nM in data set [1], 36.2 ± 16.5 nM at wild-type BRAF enzyme and 59.6 ± 2.2 nM in data set [2].

Consider `Cc1ccc2c(Nc3ccc(Cl)cc3F)nccc2c1NC(=O)c1cccc2c(N)ncnc12` [Compound 41, 4-amino-N-(1-((4-chloro-2-fluorophenyl)amino)-6-methylisoquinolin-5-yl)quinazoline-8-carboxamide], for which the IC50 is 22.2 ± 1.86 nM in data set [1], 31.8 ± 5.36 nM at wild-type BRAF enzyme and 55.6 ± 4.8 nM in data set [2].

Consider `COc1ccc(Nc2nccc3c(NC(=O)c4cccc5c(N)ncnc45)c(C)ccc23)c(F)c1` [Compound 60, 4-amino-N-(1-((2-fluoro-4-methoxyphenyl)amino)-6-methylisoquinolin-5-yl)quinazoline-8-carboxamide], for which the IC50 stood at 28 ± 3.12 nM in data set [1], 8.48 ± 0.9 nM against wild-type BRAF enzyme and 34.1 ± 4.32 nM in data set [2].

For the molecule `Cc1ccc2c(Nc3c(F)cc(F)cc3F)nccc2c1NC(=O)c1cccc2c(N)ncnc12` [Compound 94, 4-amino-N-(6-methyl-1-((2,4,6-trifluorophenyl)amino)isoquinolin-5-yl)quinazoline-8-carboxamide], the IC50 in data set [1] is 58.8 ± 5.6 nM; against wild-type BRAF enzyme, 10.3 ± 1 nM; in data set [2] it was 47.4 ± 6.5 nM.

`Cc1ccc2c(Cc3cccc(C(F)(F)F)c3)nccc2c1NC(=O)c1csc2c(N)ncnc12` [Compound 19, 4-amino-N-(6-methyl-1-(3-(trifluoromethyl)benzyl)isoquinolin-5-yl)thieno[3,2-d]pyrimidine-7-carboxamide]: the IC50 came to 163 ± 21.3 nM in data set [1], 21.6 ± 4.85 nM on wild-type BRAF enzyme and 136 ± 21.3 nM in data set [2].

Regarding `Cc1ccc2c(Nc3cccc(Cl)c3F)nccc2c1NC(=O)c1ccc(F)c2c(N)ncnc12` [Compound 93, 4-amino-N-(1-((3-chloro-2-fluorophenyl)amino)-6-methylisoquinolin-5-yl)-5-fluoroquinazoline-8-carboxamide], the IC50 in data set [1] came to 61.7 ± 3.6 nM; on wild-type BRAF enzyme, 13.5 ± 1.02 nM; in data set [2], 62.9 ± 11.3 nM.

On to `Cc1ccc2c(Nc3cccc(Cl)c3)nccc2c1NC(=O)c1cccc2c(N)ncnc12` [Compound 38, 4-amino-N-(1-((3-chlorophenyl)amino)-6-methylisoquinolin-5-yl)quinazoline-8-carboxamide], for which the IC50 turned out to be 96.7 ± 14.3 nM in data set [1], 23.2 ± 2.67 nM on wild-type BRAF enzyme and 38.1 ± 3.6 nM in data set [2].

On to `Cc1ccc2c(Nc3ccc(F)cc3F)nccc2c1NC(=O)c1cccc2c(N)ncnc12` [Compound 67, 4-amino-N-(1-((2,4-difluorophenyl)amino)-6-methylisoquinolin-5-yl)quinazoline-8-carboxamide], for which the values for the IC50 (in data set [1]; on wild-type BRAF enzyme; in data set [2]) were 184 ± 16.9 nM, 13.2 ± 1.67 nM and 56.7 ± 9.3 nM, respectively.

In the case of `Cc1ccc2c(Nc3cc(F)c(F)cc3F)nccc2c1NC(=O)c1cccc2c(N)ncnc12` [Compound 90, 4-amino-N-(6-methyl-1-((2,4,5-trifluorophenyl)amino)isoquinolin-5-yl)quinazoline-8-carboxamide], the values for the IC50 (in data set [1]; against wild-type BRAF enzyme; in data set [2]) were 74 ± 6.3 nM, 26.5 ± 2.18 nM and 118 ± 12.6 nM, respectively.
